From patent US12396994B2, “Compositions for improving physiological function with age” (The Regents Of The University Of Colorado, a body corporate, priority 2017, dated 2025)

Columns and labels:
[1] = test system: human umbilical vein endothelial cells (HUVEC); assay: Autophagy induction in HUVEC, Cyto-ID fluorescence microplate detection; type: cell-based; conditions: 24 h
Procedure: First, we compiled a library of naturally occurring compounds known to enhance autophagy. Then, we calculated physiologically relevant concentrations of these compounds based on existing data (e.g., previously reported post-prandial plasma concentrations), and we tested each for its ability to induce autophagy at its calculated concentration alone and/or in combination with other candidate compounds. […] In all experiments, autophagy was assessed in human umbilical vein endothelial cells (HUVEC), because of their relevance to vascular physiological measures (in vivo measures, below). Pooled HUVEC cultures obtained from Cascade Biologics were grown in endothelial cell-specific medium (Lonza) at 37° C. in a […] incubator. Third passage cells were seeded into 96-well plates and allowed to reach 70% confluency, at which point candidate treatment compounds or combinations were applied for 24 hours. […] Autophagy was assessed using Enzo Life Sciences Cyto-ID autophagy detection reagents (fluorescence microplate detection of autophagic structures) according to manufacturers instructions on an M5 Spectramax fluorescent plate reader (Molecular Devices). Candidate AEON formulations were designated as AEON-1, -2, etc.
To identify a mixture of food-safe compounds that synergistically activates autophagy (the cellular process of recycling damaged internal components), we screened a library of natural compounds reported to induce autophagy in vitro (in cells). […] Autophagy was assessed via fluorescent microplate assay and confirmed by microscopy in cultured human umbilical vein endothelial cells treated for 24 hours.

[2] = test system: cells; conditions: reported, trehalose in cells and in mice; cited from earlier work
[3] = low (physiologically relevant) doses, ingredient alone (trehalose 5 mM)

OC[C@H]1O[C@H](O[C@H]2O[C@H](CO)[C@@H](O)[C@H](O)[C@H]2O)[C@H](O)[C@@H](O)[C@@H]1O [trehalose]
Autophagy induction (relative microplate fluorescence) ([1]; established inducers at rapamycin 0.5 μM, trehalose 50 mM (high dose), FIG. 1A): significantly stimulated autophagy
Autophagy induction (relative microplate fluorescence) [1, 3]: had no effect on autophagy
Concentration at which the single agent induces autophagy [2]: 50 to 100 mM

Cn1c(=O)c2c(ncn2C)n(C)c1=O [caffeine]
Concentration at which the single agent induces autophagy [2]: 1 to 20 mM

C=C1CC[C@H](O)C/C1=C/C=C1\CCC[C@]2(C)[C@@H]([C@H](C)CCCC(C)C)CC[C@@H]12 [cholecalciferol]
Autophagy induction (relative microplate fluorescence) [1, 3]: had no effect on autophagy

O=C(O[C@@H]1Cc2c(O)cc(O)cc2O[C@@H]1c1cc(O)c(O)c(O)c1)c1cc(O)c(O)c(O)c1 [epigallocatechin gallate]
Autophagy induction (relative microplate fluorescence) [1, 3]: had no effect on autophagy
